#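 These data come from cells grown in 96-well plates and exposed to compound for 48 hours at five concentrations. GI50 = concentration required for 50% inhibition of growth.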 Calls of active or inactive are those of the source. No stated cut-off is given here; in the data, active = GI50 up to about 1.1 µM and inactive = higher.
# Columns and labels:
# Assay in all cases: inhibition of tumour cell growth, NCI panel, 48 h
# Hs-578T = tested on: Hs-578T
# OVCAR-8 = tested on: OVCAR-8
# MOLT-4 = tested on: MOLT-4
# U-251 = tested on: U-251
# UO-31 = tested on: UO-31
# HOP-62 = tested on: HOP-62
# NCI-H522 = tested on: NCI-H522
# MCF7 = tested on: MCF7
# HT-29 = tested on: HT-29
# M14 = tested on: M14
# COLO 205 = tested on: COLO 205
# DU-145 = tested on: DU-145
# 786-0 = tested on: 786-0
# K562 = tested on: K562
# A549 = tested on: A549
# SF-295 = tested on: SF-295
# MDA-MB-435 = tested on: MDA-MB-435
# BT-549 = tested on: BT-549
# CAKI-1 = tested on: CAKI-1
# SW-620 = tested on: SW-620
# OVCAR-4 = tested on: OVCAR-4
# HL-60 = tested on: HL-60
# HCC 2998 = tested on: HCC 2998
# SF-268 = tested on: SF-268
# Malme-3M = tested on: Malme-3M
# A498 = tested on: A498
# PC-3 = tested on: PC-3
# RPMI-8226 = tested on: RPMI-8226
# EKVX = tested on: EKVX
# NCI-H460 = tested on: NCI-H460
# MDA-MB-231 = tested on: MDA-MB-231
# LOX IMVI = tested on: LOX IMVI
# NCI-H23 = tested on: NCI-H23
# RXF 393 = tested on: RXF 393
# ACHN = tested on: ACHN
# TK-10 = tested on: TK-10
# NCI/ADR-RES = tested on: NCI/ADR-RES
# SF-539 = tested on: SF-539
# IGROV-1 = tested on: IGROV-1
# SK-MEL-28 = tested on: SK-MEL-28
# KM12 = tested on: KM12
# T47D = tested on: T47D
# SR = tested on: SR
# HCT-116 = tested on: HCT-116
# OVCAR-3 = tested on: OVCAR-3
# SK-MEL-2 = tested on: SK-MEL-2
# SN12C = tested on: SN12C
# OVCAR-5 = tested on: OVCAR-5
# HCT-15 = tested on: HCT-15
# SNB-19 = tested on: SNB-19
# SK-OV-3 = tested on: SK-OV-3
# UACC-257 = tested on: UACC-257
# UACC-62 = tested on: UACC-62
# CCRF-CEM = tested on: CCRF-CEM
# SK-MEL-5 = tested on: SK-MEL-5
# NCI-H226 = tested on: NCI-H226
# HOP-92 = tested on: HOP-92
# SNB-75 = tested on: SNB-75
structure (smiles),measurement,setting,value
COC1=C(OC)C(=O)C(Cc2c(Cl)nc3sccn23)=C(C)C1=O,GI50,Hs-578T,11.4 µM (inactive)
same,GI50,OVCAR-8,13.5 µM (inactive)
same,GI50,MOLT-4,1.85 µM (inactive)
same,GI50,U-251,12.6 µM (inactive)
same,GI50,UO-31,10.6 µM (inactive)
same,GI50,HOP-62,16.1 µM (inactive)
same,GI50,NCI-H522,6.15 µM (inactive)
same,GI50,MCF7,10.2 µM (inactive)
same,GI50,HT-29,14.6 µM (inactive)
same,GI50,M14,11.7 µM (inactive)
same,GI50,COLO 205,15.7 µM (inactive)
same,GI50,DU-145,13.5 µM (inactive)
same,GI50,786-0,16.7 µM (inactive)
same,GI50,K562,11 µM (inactive)
same,GI50,A549,11.6 µM (inactive)
same,GI50,SF-295,12.4 µM (inactive)
same,GI50,MDA-MB-435,8.91 µM (inactive)
same,GI50,BT-549,14.4 µM (inactive)
same,GI50,CAKI-1,14.3 µM (inactive)
same,GI50,SW-620,13.7 µM (inactive)
same,GI50,OVCAR-4,2.96 µM (inactive)
same,GI50,HL-60,2.42 µM (inactive)
same,GI50,HCC 2998,15.7 µM (inactive)
same,GI50,SF-268,14.5 µM (inactive)
same,GI50,Malme-3M,1.85 µM (inactive)
same,GI50,A498,12.8 µM (inactive)
same,GI50,PC-3,14.2 µM (inactive)
same,GI50,RPMI-8226,2.34 µM (inactive)
same,GI50,EKVX,7.11 µM (inactive)
same,GI50,NCI-H460,12.8 µM (inactive)
same,GI50,MDA-MB-231,2.38 µM (inactive)
same,GI50,LOX IMVI,2.96 µM (inactive)
same,GI50,NCI-H23,5.36 µM (inactive)
same,GI50,RXF 393,16.1 µM (inactive)
same,GI50,ACHN,12.4 µM (inactive)
same,GI50,TK-10,12.9 µM (inactive)
same,GI50,NCI/ADR-RES,5.89 µM (inactive)
same,GI50,SF-539,12.5 µM (inactive)
same,GI50,IGROV-1,15.7 µM (inactive)
same,GI50,SK-MEL-28,12 µM (inactive)
same,GI50,KM12,10.4 µM (inactive)
same,GI50,T47D,2.76 µM (inactive)
same,GI50,SR,5.04 µM (inactive)
same,GI50,HCT-116,13.6 µM (inactive)
same,GI50,OVCAR-3,12.7 µM (inactive)
same,GI50,SK-MEL-2,14.1 µM (inactive)
same,GI50,SN12C,13.4 µM (inactive)
same,GI50,OVCAR-5,16.9 µM (inactive)
same,GI50,HCT-15,12.6 µM
same,GI50,SNB-19,13.5 µM (inactive)
same,GI50,SK-OV-3,10.1 µM (inactive)
same,GI50,UACC-257,3.32 µM (inactive)
same,GI50,UACC-62,5.2 µM (inactive)
same,GI50,CCRF-CEM,2.02 µM (inactive)
same,GI50,SK-MEL-5,4.14 µM (inactive)
C[n+]1cn(-c2ccc([N+](=O)[O-])cn2)c2ccccc21,GI50,Hs-578T,> 100 µM (inactive)
same,GI50,OVCAR-8,> 100 µM (inactive)
same,GI50,MOLT-4,> 100 µM (inactive)
same,GI50,U-251,> 100 µM (inactive)
same,GI50,UO-31,> 100 µM (inactive)
same,GI50,HOP-62,> 100 µM (inactive)
same,GI50,MCF7,> 100 µM (inactive)
same,GI50,HT-29,> 100 µM (inactive)
same,GI50,M14,> 100 µM (inactive)
same,GI50,COLO 205,> 100 µM (inactive)
same,GI50,DU-145,> 100 µM (inactive)
same,GI50,786-0,> 100 µM (inactive)
same,GI50,K562,> 100 µM (inactive)
same,GI50,A549,> 100 µM (inactive)
same,GI50,SF-295,> 100 µM (inactive)
same,GI50,MDA-MB-435,> 100 µM (inactive)
same,GI50,BT-549,> 100 µM (inactive)
same,GI50,CAKI-1,> 100 µM (inactive)
same,GI50,SW-620,> 100 µM (inactive)
same,GI50,OVCAR-4,> 100 µM (inactive)
same,GI50,HL-60,> 100 µM (inactive)
same,GI50,HCC 2998,> 100 µM (inactive)
same,GI50,SF-268,> 100 µM (inactive)
same,GI50,Malme-3M,> 100 µM (inactive)
same,GI50,A498,> 100 µM (inactive)
same,GI50,PC-3,> 100 µM (inactive)
same,GI50,RPMI-8226,> 100 µM (inactive)
same,GI50,EKVX,> 100 µM (inactive)
same,GI50,NCI-H460,> 100 µM (inactive)
same,GI50,MDA-MB-231,> 100 µM (inactive)
same,GI50,LOX IMVI,> 100 µM (inactive)
same,GI50,NCI-H23,> 100 µM (inactive)
same,GI50,RXF 393,> 100 µM (inactive)
same,GI50,ACHN,> 100 µM (inactive)
same,GI50,NCI-H226,> 100 µM (inactive)
same,GI50,TK-10,> 100 µM (inactive)
same,GI50,NCI/ADR-RES,> 100 µM (inactive)
same,GI50,SF-539,> 100 µM (inactive)
same,GI50,IGROV-1,> 100 µM (inactive)
same,GI50,SK-MEL-28,> 100 µM (inactive)
same,GI50,KM12,> 100 µM (inactive)
same,GI50,T47D,> 100 µM (inactive)
same,GI50,SR,> 100 µM (inactive)
same,GI50,HCT-116,> 100 µM (inactive)
same,GI50,OVCAR-3,> 100 µM (inactive)
same,GI50,SK-MEL-2,> 100 µM (inactive)
same,GI50,OVCAR-5,> 100 µM (inactive)
same,GI50,HCT-15,> 100 µM
same,GI50,HOP-92,> 100 µM (inactive)
same,GI50,SNB-19,> 100 µM (inactive)
same,GI50,SK-OV-3,> 100 µM (inactive)
same,GI50,SNB-75,> 100 µM (inactive)
same,GI50,UACC-257,> 100 µM (inactive)
same,GI50,UACC-62,> 100 µM (inactive)
same,GI50,CCRF-CEM,> 100 µM (inactive)
same,GI50,SK-MEL-5,> 100 µM (inactive)
CC(=O)OC[C@@]12Cc3ccc(C)c(O)c3[C@]1(C)[C@@H](OC(C)=O)[C@]1(O)[C@H]([C@@H](OC(=O)c3ccccc3)[C@@H](C)[C@H]1OC(C)=O)[C@H]2OC(C)=O,GI50,Hs-578T,> 50 µM (inactive)
same,GI50,OVCAR-8,> 50 µM (inactive)
same,GI50,MOLT-4,> 50 µM (inactive)
same,GI50,U-251,> 50 µM (inactive)
same,GI50,UO-31,> 50 µM (inactive)
same,GI50,HOP-62,> 50 µM (inactive)
same,GI50,NCI-H522,> 50 µM (inactive)
same,GI50,MCF7,> 50 µM (inactive)
same,GI50,M14,> 50 µM (inactive)
same,GI50,COLO 205,> 50 µM (inactive)
same,GI50,DU-145,> 50 µM (inactive)
same,GI50,786-0,> 50 µM (inactive)
same,GI50,K562,> 50 µM (inactive)
same,GI50,SF-295,> 50 µM (inactive)
same,GI50,MDA-MB-435,> 50 µM (inactive)
same,GI50,BT-549,> 50 µM (inactive)
same,GI50,CAKI-1,> 50 µM (inactive)
same,GI50,SW-620,> 50 µM (inactive)
same,GI50,OVCAR-4,> 50 µM (inactive)
same,GI50,HL-60,44.9 µM (inactive)
same,GI50,HCC 2998,22 µM (inactive)
same,GI50,SF-268,> 50 µM (inactive)
same,GI50,A498,> 50 µM (inactive)
same,GI50,PC-3,> 50 µM (inactive)
same,GI50,EKVX,> 50 µM (inactive)
same,GI50,NCI-H460,> 50 µM (inactive)
same,GI50,MDA-MB-231,> 50 µM (inactive)
same,GI50,LOX IMVI,> 50 µM (inactive)
same,GI50,NCI-H23,> 50 µM (inactive)
same,GI50,RXF 393,> 50 µM (inactive)
same,GI50,ACHN,> 50 µM (inactive)
same,GI50,NCI-H226,> 50 µM (inactive)
same,GI50,TK-10,> 50 µM (inactive)
same,GI50,NCI/ADR-RES,> 50 µM (inactive)
same,GI50,SF-539,> 50 µM (inactive)
same,GI50,IGROV-1,> 50 µM (inactive)
same,GI50,KM12,> 50 µM (inactive)
same,GI50,T47D,> 50 µM (inactive)
same,GI50,SR,> 50 µM (inactive)
same,GI50,HCT-116,> 50 µM (inactive)
same,GI50,OVCAR-3,> 50 µM (inactive)
same,GI50,SK-MEL-2,> 50 µM (inactive)
same,GI50,SN12C,> 50 µM (inactive)
same,GI50,OVCAR-5,> 50 µM (inactive)
same,GI50,HCT-15,> 50 µM
same,GI50,HOP-92,> 50 µM (inactive)
same,GI50,SNB-19,> 50 µM (inactive)
same,GI50,SK-OV-3,> 50 µM (inactive)
same,GI50,SNB-75,16.4 µM (inactive)
same,GI50,UACC-257,> 50 µM (inactive)
same,GI50,UACC-62,> 50 µM (inactive)
same,GI50,CCRF-CEM,> 50 µM (inactive)
same,GI50,SK-MEL-5,> 50 µM (inactive)
